Results published in ChEMBL document CHEMBL4507295 (2021).

Columns and labels:
[1] = molecular target: Dual specificity protein kinase CLK1 (Homo sapiens) (UniProt P49759); conditions: Compound concentration 1000.0 nM
[2] = molecular target: Serine/threonine-protein kinase Nek2 (Homo sapiens) (UniProt P51955); conditions: Compound concentration 1000.0 nM
[3] = molecular target: Serine/threonine-protein kinase Sgk3 (Homo sapiens) (UniProt Q96BR1); conditions: Compound concentration 1000.0 nM
[4] = molecular target: Cyclin-dependent kinase 9 (Homo sapiens) (UniProt P50750); conditions: Compound concentration 1000.0 nM
[5] = molecular target: Sodium-dependent noradrenaline transporter (Homo sapiens) (UniProt P23975); conditions: Compound concentration 10.0 uM
[6] = molecular target: Mitogen-activated protein kinase kinase kinase 7 (Homo sapiens) (UniProt O43318); conditions: Compound concentration 1000.0 nM
[7] = molecular target: Calcium/calmodulin-dependent protein kinase kinase 2 (Homo sapiens) (UniProt Q96RR4); conditions: Compound concentration 1000.0 nM
[8] = system: Tyrosine-protein kinase ABL1 (Homo sapiens), P00519 [F317I]; conditions: Compound concentration 1000.0 nM
[9] = molecular target: Serine/threonine-protein kinase VRK2 (Homo sapiens) (UniProt Q86Y07); conditions: Compound concentration 1000.0 nM
[10] = molecular target: Phosphorylase b kinase regulatory subunit alpha, liver isoform (Homo sapiens) (UniProt P46019); conditions: Compound concentration 1000.0 nM
[11] = system: Epidermal growth factor receptor (Homo sapiens), P00533 [UNDEFINED MUTATION]; conditions: Compound concentration 1000.0 nM
[12] = molecular target: Serine/threonine-protein kinase ULK2 (Homo sapiens) (UniProt Q8IYT8); conditions: Compound concentration 1000.0 nM
[13] = molecular target: SRSF protein kinase 2 (Homo sapiens) (UniProt P78362); conditions: Compound concentration 1000.0 nM
[14] = molecular target: Tyrosine-protein kinase TXK (Homo sapiens) (UniProt P42681); conditions: Compound concentration 1000.0 nM
[15] = molecular target: Serine/threonine-protein kinase WNK2 (Homo sapiens) (UniProt Q9Y3S1); conditions: Compound concentration 1000.0 nM
[16] = molecular target: Serine/threonine-protein kinase NLK (Homo sapiens) (UniProt Q9UBE8); conditions: Compound concentration 1000.0 nM
[17] = molecular target: Serine/threonine-protein kinase Nek6 (Homo sapiens) (UniProt Q9HC98); conditions: Compound concentration 1000.0 nM
[18] = molecular target: cGMP-dependent protein kinase 1 (Homo sapiens) (UniProt Q13976); conditions: Compound concentration 1000.0 nM
[19] = molecular target: Protein-tyrosine kinase 6 (Homo sapiens) (UniProt Q13882); conditions: Compound concentration 1000.0 nM
[20] = molecular target: MAP/microtubule affinity-regulating kinase 3 (Homo sapiens) (UniProt P27448); conditions: Compound concentration 1000.0 nM
[21] = molecular target: Glycogen synthase kinase-3 beta (Homo sapiens) (UniProt P49841); conditions: Compound concentration 1000.0 nM
[22] = molecular target: Myosin light chain kinase, smooth muscle (Homo sapiens) (UniProt Q15746); conditions: Compound concentration 1000.0 nM
[23] = molecular target: Serine/threonine-protein kinase pim-2 (Homo sapiens) (UniProt Q9P1W9); conditions: Compound concentration 1000.0 nM
[24] = molecular target: Vascular endothelial growth factor receptor 2 (Homo sapiens) (UniProt P35968); conditions: Compound concentration 1000.0 nM
[25] = molecular target: Homeodomain-interacting protein kinase 3 (Homo sapiens) (UniProt Q9H422); conditions: Compound concentration 1000.0 nM
[26] = molecular target: Mitogen-activated protein kinase kinase kinase 13 (Homo sapiens) (UniProt O43283); conditions: Compound concentration 1000.0 nM
[27] = molecular target: Serine/threonine-protein kinase TAO2 (Homo sapiens) (UniProt Q9UL54); conditions: Compound concentration 1000.0 nM
[28] = molecular target: BDNF/NT-3 growth factors receptor (Homo sapiens) (UniProt Q16620); conditions: Compound concentration 1000.0 nM
[29] = molecular target: Cyclin-dependent kinase-like 1 (Homo sapiens) (UniProt Q00532); conditions: Compound concentration 1000.0 nM
[30] = molecular target: Serine/threonine-protein kinase 25 (Homo sapiens) (UniProt O00506); conditions: Compound concentration 1000.0 nM
[31] = molecular target: Calcium/calmodulin-dependent protein kinase type IV (Homo sapiens) (UniProt Q16566); conditions: Compound concentration 1000.0 nM
[32] = molecular target: Rho-associated protein kinase 2 (Homo sapiens) (UniProt O75116); conditions: Compound concentration 1000.0 nM
[33] = molecular target: Tyrosine-protein kinase ABL1 (Homo sapiens) (UniProt P00519); conditions: Compound concentration 1000.0 nM
[34] = molecular target: Serine/threonine-protein kinase B-raf (Homo sapiens) (UniProt P15056); conditions: Compound concentration 1000.0 nM
[35] = molecular target: Serine/threonine-protein kinase D3 (Homo sapiens) (UniProt O94806); conditions: Compound concentration 1000.0 nM
[36] = molecular target: Serine/threonine-protein kinase DCLK2 (Homo sapiens) (UniProt Q8N568); conditions: Compound concentration 1000.0 nM
[37] = molecular target: Serine/threonine-protein kinase pim-1 (Homo sapiens) (UniProt P11309); conditions: Compound concentration 1000.0 nM
[38] = molecular target: Tyrosine-protein kinase Tec (Homo sapiens) (UniProt P42680); conditions: Compound concentration 1000.0 nM
[39] = molecular target: Dual specificity protein kinase CLK4 (Homo sapiens) (UniProt Q9HAZ1); conditions: Compound concentration 1000.0 nM
[40] = molecular target: Serine/threonine-protein kinase tousled-like 2 (Homo sapiens) (UniProt Q86UE8); conditions: Compound concentration 1000.0 nM
[41] = system: Mast/stem cell growth factor receptor Kit (Homo sapiens), P10721 [V559D,V654A]; conditions: Compound concentration 1000.0 nM
[42] = molecular target: Fibroblast growth factor receptor 3 (Homo sapiens) (UniProt P22607); conditions: Compound concentration 1000.0 nM
[43] = molecular target: Protein kinase C theta type (Homo sapiens) (UniProt Q04759); conditions: Compound concentration 1000.0 nM
[44] = molecular target: Ribosomal protein S6 kinase alpha-2 (Homo sapiens) (UniProt Q15349); conditions: Compound concentration 1000.0 nM
[45] = system: Receptor-type tyrosine-protein kinase FLT3 (Homo sapiens), P36888 [D835Y]; conditions: Compound concentration 1000.0 nM

Sequence of Serine/threonine-protein kinase ULK2 (Homo sapiens) (Q8IYT8 whole entry): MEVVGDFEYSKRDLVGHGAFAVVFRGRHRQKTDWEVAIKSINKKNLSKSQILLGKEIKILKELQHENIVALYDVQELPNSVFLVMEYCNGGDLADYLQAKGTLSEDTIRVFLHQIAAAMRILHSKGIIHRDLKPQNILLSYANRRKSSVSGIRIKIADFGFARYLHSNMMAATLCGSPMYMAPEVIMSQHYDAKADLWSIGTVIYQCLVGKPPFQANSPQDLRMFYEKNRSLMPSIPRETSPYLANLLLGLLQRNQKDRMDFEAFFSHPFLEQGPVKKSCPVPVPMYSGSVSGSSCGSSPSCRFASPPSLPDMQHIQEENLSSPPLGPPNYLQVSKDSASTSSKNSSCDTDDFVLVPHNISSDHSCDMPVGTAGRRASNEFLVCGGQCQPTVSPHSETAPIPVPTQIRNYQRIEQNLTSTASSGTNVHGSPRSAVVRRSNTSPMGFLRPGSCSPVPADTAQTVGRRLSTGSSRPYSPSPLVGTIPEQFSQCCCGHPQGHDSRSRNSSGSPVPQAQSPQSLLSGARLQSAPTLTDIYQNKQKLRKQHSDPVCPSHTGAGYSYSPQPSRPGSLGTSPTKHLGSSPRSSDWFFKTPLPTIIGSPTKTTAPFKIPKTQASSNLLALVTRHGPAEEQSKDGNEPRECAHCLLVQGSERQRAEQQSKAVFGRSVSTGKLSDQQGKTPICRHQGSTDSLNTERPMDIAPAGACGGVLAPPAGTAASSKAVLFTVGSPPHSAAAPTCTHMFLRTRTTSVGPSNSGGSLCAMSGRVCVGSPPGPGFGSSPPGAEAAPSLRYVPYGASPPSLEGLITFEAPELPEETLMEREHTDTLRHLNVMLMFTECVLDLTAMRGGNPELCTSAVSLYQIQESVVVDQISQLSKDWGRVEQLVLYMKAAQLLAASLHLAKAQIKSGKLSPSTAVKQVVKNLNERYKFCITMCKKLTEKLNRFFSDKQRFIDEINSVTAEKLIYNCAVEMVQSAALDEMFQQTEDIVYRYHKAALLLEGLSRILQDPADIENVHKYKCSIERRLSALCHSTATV
Sequence of Tyrosine-protein kinase Tec (Homo sapiens) (P42680 whole entry): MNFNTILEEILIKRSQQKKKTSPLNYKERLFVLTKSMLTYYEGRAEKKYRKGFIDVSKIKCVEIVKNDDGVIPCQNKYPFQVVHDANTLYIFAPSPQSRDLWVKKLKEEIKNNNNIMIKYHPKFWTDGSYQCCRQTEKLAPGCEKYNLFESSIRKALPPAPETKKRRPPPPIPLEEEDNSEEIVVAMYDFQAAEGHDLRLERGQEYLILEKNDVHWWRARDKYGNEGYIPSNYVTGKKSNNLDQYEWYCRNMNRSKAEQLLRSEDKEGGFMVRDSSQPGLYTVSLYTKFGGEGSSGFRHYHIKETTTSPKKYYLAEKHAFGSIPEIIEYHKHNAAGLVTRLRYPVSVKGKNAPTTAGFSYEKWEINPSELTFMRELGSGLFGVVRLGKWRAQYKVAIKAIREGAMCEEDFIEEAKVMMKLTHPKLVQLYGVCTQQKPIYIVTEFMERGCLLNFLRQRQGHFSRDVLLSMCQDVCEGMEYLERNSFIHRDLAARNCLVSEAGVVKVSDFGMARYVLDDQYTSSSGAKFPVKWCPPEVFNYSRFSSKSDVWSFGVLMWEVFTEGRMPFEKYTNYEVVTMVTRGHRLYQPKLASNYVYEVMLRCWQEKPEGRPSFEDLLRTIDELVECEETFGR
Sequence of SRSF protein kinase 2 (Homo sapiens) (P78362 whole entry, looked up): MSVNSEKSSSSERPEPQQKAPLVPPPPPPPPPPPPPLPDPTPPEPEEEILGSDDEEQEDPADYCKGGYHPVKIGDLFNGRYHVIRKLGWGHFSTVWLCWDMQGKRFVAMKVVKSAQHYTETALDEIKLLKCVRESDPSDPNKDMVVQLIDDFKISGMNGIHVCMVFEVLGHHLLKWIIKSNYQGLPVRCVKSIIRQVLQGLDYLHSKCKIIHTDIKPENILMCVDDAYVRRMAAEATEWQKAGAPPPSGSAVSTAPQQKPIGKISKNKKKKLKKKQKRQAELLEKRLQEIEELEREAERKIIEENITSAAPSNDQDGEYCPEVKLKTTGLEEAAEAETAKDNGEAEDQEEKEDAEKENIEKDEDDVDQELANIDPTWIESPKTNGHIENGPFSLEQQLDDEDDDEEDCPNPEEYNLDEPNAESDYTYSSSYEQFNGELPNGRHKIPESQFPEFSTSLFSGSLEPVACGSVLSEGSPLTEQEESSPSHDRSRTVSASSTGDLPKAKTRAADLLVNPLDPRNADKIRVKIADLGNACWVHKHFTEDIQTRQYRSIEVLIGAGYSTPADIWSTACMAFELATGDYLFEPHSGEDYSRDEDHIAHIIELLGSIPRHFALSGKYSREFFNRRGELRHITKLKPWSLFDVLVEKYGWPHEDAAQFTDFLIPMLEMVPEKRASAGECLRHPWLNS
Sequence of Serine/threonine-protein kinase NLK (Homo sapiens) (Q9UBE8 whole entry): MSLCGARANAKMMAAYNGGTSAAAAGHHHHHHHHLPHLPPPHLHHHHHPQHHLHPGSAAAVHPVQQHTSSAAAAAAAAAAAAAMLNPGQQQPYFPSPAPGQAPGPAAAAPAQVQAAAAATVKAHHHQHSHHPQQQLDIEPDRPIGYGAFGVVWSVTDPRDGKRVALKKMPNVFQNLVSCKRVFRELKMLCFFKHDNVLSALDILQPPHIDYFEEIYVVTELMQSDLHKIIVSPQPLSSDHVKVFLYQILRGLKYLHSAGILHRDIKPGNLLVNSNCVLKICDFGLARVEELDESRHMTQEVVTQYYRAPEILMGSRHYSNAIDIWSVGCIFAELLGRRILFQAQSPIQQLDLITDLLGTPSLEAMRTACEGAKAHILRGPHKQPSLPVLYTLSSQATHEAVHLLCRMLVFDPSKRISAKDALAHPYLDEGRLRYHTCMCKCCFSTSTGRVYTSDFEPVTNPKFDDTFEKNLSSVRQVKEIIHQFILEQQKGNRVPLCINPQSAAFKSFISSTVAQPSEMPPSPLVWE
Sequence of Myosin light chain kinase, smooth muscle (Homo sapiens) (Q15746 whole entry): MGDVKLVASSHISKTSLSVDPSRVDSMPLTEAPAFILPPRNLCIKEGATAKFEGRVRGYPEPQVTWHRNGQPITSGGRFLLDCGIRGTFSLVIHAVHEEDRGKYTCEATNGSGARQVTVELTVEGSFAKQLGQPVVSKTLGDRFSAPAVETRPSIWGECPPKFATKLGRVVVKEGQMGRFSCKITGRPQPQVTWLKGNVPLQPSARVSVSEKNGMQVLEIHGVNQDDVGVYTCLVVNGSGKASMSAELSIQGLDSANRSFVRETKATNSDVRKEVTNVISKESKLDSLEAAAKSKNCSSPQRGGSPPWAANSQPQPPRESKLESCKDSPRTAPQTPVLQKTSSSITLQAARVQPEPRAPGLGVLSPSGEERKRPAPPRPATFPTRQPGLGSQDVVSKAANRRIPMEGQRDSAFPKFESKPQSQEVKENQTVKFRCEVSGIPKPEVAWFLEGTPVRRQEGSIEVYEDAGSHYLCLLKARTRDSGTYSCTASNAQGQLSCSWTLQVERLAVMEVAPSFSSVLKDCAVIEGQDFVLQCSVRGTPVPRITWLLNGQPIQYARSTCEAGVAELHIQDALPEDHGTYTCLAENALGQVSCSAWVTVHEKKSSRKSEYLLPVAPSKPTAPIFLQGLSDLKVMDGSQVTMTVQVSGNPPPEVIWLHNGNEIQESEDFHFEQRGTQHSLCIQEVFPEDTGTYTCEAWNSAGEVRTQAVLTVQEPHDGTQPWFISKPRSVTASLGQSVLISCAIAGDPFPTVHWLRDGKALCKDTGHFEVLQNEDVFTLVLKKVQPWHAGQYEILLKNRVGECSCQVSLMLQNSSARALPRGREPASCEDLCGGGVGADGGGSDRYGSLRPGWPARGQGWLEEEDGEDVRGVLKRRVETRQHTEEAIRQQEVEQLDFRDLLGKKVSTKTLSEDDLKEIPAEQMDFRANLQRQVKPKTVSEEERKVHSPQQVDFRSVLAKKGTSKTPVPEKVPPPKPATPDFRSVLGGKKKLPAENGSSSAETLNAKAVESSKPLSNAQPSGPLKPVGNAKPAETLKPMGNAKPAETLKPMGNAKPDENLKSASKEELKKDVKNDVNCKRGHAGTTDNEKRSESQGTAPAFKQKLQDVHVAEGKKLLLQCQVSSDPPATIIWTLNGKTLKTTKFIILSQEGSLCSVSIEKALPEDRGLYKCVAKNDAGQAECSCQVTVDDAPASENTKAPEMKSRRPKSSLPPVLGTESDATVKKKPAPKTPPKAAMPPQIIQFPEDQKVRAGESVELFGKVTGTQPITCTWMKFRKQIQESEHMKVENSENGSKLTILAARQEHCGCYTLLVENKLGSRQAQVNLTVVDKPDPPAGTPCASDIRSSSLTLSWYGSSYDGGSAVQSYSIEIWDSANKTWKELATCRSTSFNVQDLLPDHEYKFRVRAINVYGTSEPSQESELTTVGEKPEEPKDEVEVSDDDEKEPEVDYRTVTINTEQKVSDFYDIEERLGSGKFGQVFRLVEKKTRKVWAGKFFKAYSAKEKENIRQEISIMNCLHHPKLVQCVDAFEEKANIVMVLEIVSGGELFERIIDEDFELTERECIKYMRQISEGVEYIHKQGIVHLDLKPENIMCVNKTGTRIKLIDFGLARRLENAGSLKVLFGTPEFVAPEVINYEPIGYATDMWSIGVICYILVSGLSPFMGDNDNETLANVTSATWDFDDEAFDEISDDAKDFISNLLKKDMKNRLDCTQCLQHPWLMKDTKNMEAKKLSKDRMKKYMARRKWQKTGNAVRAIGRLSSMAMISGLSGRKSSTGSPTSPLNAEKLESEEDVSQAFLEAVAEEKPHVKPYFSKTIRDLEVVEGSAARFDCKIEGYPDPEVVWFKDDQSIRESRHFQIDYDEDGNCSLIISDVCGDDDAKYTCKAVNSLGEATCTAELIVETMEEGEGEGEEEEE

N#CC1(c2ccccn2)CCN(Cc2cc(C(=O)N3CCCC3)c(=O)n3ccccc23)CC1
inactive: residual activity [1] 85% | residual activity [2] 95% | residual activity [3] 82% | residual activity [4] 88% | inhibition [5] 40.5% | residual activity [6] 99% | residual activity [7] 100% | residual activity [8] 75% | residual activity [9] 100% | residual activity [10] 85% | residual activity [11] 77% | residual activity [12] 92% | residual activity [13] 84% | residual activity [14] 91% | residual activity [15] 100% | residual activity [16] 92% | residual activity [17] 100% | residual activity [18] 88% | residual activity [19] 82% | residual activity [20] 87% | residual activity [21] 100% | residual activity [22] 100% | residual activity [23] 77% | residual activity [24] 92% | residual activity [25] 97% | residual activity [26] 100% | residual activity [27] 100% | residual activity [28] 93% | residual activity [29] 78% | residual activity [30] 97% | residual activity [31] 96% | residual activity [32] 72% | residual activity [33] 78% | residual activity [34] 100% | residual activity [35] 100% | residual activity [36] 100% | residual activity [37] 100% | residual activity [38] 100% | residual activity [39] 97% | residual activity [40] 100% | residual activity [41] 100% | residual activity [42] 88% | residual activity [43] 100% | residual activity [44] 86% | residual activity [45] 71%

N#CC1(c2ccccn2)CCN(Cc2cc(C(=O)O)c(=O)n3ccccc23)CC1 [MSD-M1PAM]
inactive: residual activity [1] 80% | residual activity [2] 100% | residual activity [3] 74% | residual activity [4] 99% | inhibition [5] 24.7% | residual activity [6] 90% | residual activity [7] 100% | residual activity [8] 81% | residual activity [9] 100% | residual activity [10] 100% | residual activity [11] 97% | residual activity [12] 93% | residual activity [13] 100% | residual activity [14] 100% | residual activity [15] 79% | residual activity [16] 100% | residual activity [17] 100% | residual activity [18] 98% | residual activity [19] 100% | residual activity [20] 100% | residual activity [21] 100% | residual activity [22] 87% | residual activity [23] 100% | residual activity [24] 79% | residual activity [25] 84% | residual activity [26] 78% | residual activity [27] 97% | residual activity [28] 84% | residual activity [29] 100% | residual activity [30] 100% | residual activity [31] 84% | residual activity [32] 85% | residual activity [33] 98% | residual activity [34] 93% | residual activity [35] 98% | residual activity [36] 100% | residual activity [37] 99% | residual activity [38] 100% | residual activity [39] 100% | residual activity [40] 98% | residual activity [41] 100% | residual activity [42] 100% | residual activity [43] 96% | residual activity [44] 100% | residual activity [45] 95%
